Test results as given in PubChem BioAssay (NCI).
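Cultured in 96-well plates, cells were exposed to test compound for 48 hours across five concentrations. At the GI50, growth is halved. TGI is the concentration that stops growth completely.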

Key:
Assay in all cases: inhibition of tumour cell growth, NCI panel, 48 h
UACC-257 melanoma = system: UACC-257 melanoma
786-0 renal = system: 786-0 renal
SK-MEL-5 melanoma = system: SK-MEL-5 melanoma
HCT-116 colon = system: HCT-116 colon
KM12 colon = system: KM12 colon
SF-539 CNS = system: SF-539 CNS
SK-OV-3 ovarian = system: SK-OV-3 ovarian
OVCAR-4 ovarian = system: OVCAR-4 ovarian
HOP-62 NSCLC = system: HOP-62 NSCLC
RPMI-8226 leukemia = system: RPMI-8226 leukemia

SMILES: COc1ccc(/C(C#N)=C/c2ccccc2OC)cc1
- GI50 (UACC-257 melanoma): 12.4 µM
- TGI (UACC-257 melanoma): > 100 µM
- GI50 (786-0 renal): 15.2 µM
- TGI (786-0 renal): > 100 µM
- GI50 (SK-MEL-5 melanoma): 9.25 µM
- TGI (SK-MEL-5 melanoma): > 100 µM
- GI50 (HCT-116 colon): 4.46 µM
- TGI (HCT-116 colon): > 100 µM
- GI50 (KM12 colon): 5.04 µM
- TGI (KM12 colon): > 100 µM
- GI50 (SF-539 CNS): 20.5 µM
- TGI (SF-539 CNS): > 100 µM
- GI50 (SK-OV-3 ovarian): 19.4 µM
- TGI (SK-OV-3 ovarian): > 100 µM
- GI50 (OVCAR-4 ovarian): 32.5 µM
- TGI (OVCAR-4 ovarian): > 100 µM
- GI50 (HOP-62 NSCLC): 19.9 µM
- TGI (HOP-62 NSCLC): > 100 µM
- GI50 (RPMI-8226 leukemia): 9.02 µM
- TGI (RPMI-8226 leukemia): 46.2 µM

SMILES: C#CCOCn1cnc2c(Cl)ncnc21
- TGI (UACC-257 melanoma): > 100 µM
- TGI (786-0 renal): > 100 µM
- TGI (SK-MEL-5 melanoma): > 100 µM
- TGI (HCT-116 colon): > 100 µM
- TGI (KM12 colon): > 100 µM
- TGI (SF-539 CNS): > 100 µM
- TGI (SK-OV-3 ovarian): > 100 µM
- TGI (OVCAR-4 ovarian): > 100 µM
- TGI (HOP-62 NSCLC): > 100 µM
- TGI (RPMI-8226 leukemia): > 100 µM

SMILES: Cc1ccc(N=Nc2c(O)c(C(=O)O)cc3ccccc23)cc1C
- TGI (UACC-257 melanoma): > 100 µM
- TGI (786-0 renal): > 100 µM
- TGI (SK-MEL-5 melanoma): > 100 µM
- TGI (HCT-116 colon): > 100 µM
- TGI (KM12 colon): > 100 µM
- TGI (SF-539 CNS): > 100 µM
- TGI (SK-OV-3 ovarian): > 100 µM
- TGI (OVCAR-4 ovarian): > 100 µM
- TGI (HOP-62 NSCLC): > 100 µM
- TGI (RPMI-8226 leukemia): > 100 µM

SMILES: COc1ccc(OC)c(/C=C2\SC(=S)NC2=O)c1
- GI50 (UACC-257 melanoma): 19.8 µM
- TGI (UACC-257 melanoma): 61.5 µM
- GI50 (786-0 renal): 30.8 µM
- TGI (786-0 renal): > 100 µM
- GI50 (SK-MEL-5 melanoma): 21.2 µM
- TGI (SK-MEL-5 melanoma): 49.2 µM
- GI50 (HCT-116 colon): 29.9 µM
- TGI (HCT-116 colon): > 100 µM
- GI50 (KM12 colon): 58.7 µM
- TGI (KM12 colon): > 100 µM
- GI50 (SF-539 CNS): 17.4 µM
- TGI (SF-539 CNS): 49.6 µM
- GI50 (SK-OV-3 ovarian): 33.1 µM
- TGI (SK-OV-3 ovarian): > 100 µM
- GI50 (OVCAR-4 ovarian): 62.9 µM
- TGI (OVCAR-4 ovarian): > 100 µM
- GI50 (HOP-62 NSCLC): 30.9 µM
- TGI (HOP-62 NSCLC): > 100 µM
- GI50 (RPMI-8226 leukemia): 36.7 µM
- TGI (RPMI-8226 leukemia): > 100 µM

SMILES: COC(=O)[C@@]1(C)CC[C@]2(C)CC[C@]3(C)C4=CC=C5C(=CC(=O)C(O)=C5C)[C@]4(C)[C@@H](O)C[C@@]3(C)[C@@H]2C1
- GI50 (UACC-257 melanoma): 10.1 µM
- TGI (UACC-257 melanoma): 24.3 µM
- GI50 (786-0 renal): 1.79 µM
- TGI (786-0 renal): 5.23 µM
- GI50 (SK-MEL-5 melanoma): 16.5 µM
- TGI (SK-MEL-5 melanoma): 32.6 µM
- GI50 (HCT-116 colon): 3.67 µM
- TGI (HCT-116 colon): 14.3 µM
- GI50 (KM12 colon): 13 µM
- TGI (KM12 colon): 25.1 µM
- GI50 (SF-539 CNS): 15.7 µM
- TGI (SF-539 CNS): 28.8 µM
- GI50 (SK-OV-3 ovarian): 19.1 µM
- TGI (SK-OV-3 ovarian): 42.2 µM
- GI50 (OVCAR-4 ovarian): 8.38 µM
- TGI (OVCAR-4 ovarian): 19.7 µM
- GI50 (HOP-62 NSCLC): 13.3 µM
- TGI (HOP-62 NSCLC): 25.9 µM
- GI50 (RPMI-8226 leukemia): 5.17 µM
- TGI (RPMI-8226 leukemia): 27.7 µM

SMILES: CC(C)[C@H]1CO[C@]2(C)[C@@H]3CN(Cc4ccccc4)C[C@@H]3C(=O)N12
- TGI (UACC-257 melanoma): > 100 µM
- TGI (786-0 renal): > 100 µM
- TGI (SK-MEL-5 melanoma): > 100 µM
- TGI (HCT-116 colon): > 100 µM
- TGI (KM12 colon): > 100 µM
- TGI (SF-539 CNS): > 100 µM
- TGI (SK-OV-3 ovarian): > 100 µM
- TGI (OVCAR-4 ovarian): > 100 µM
- TGI (HOP-62 NSCLC): > 100 µM
- TGI (RPMI-8226 leukemia): > 100 µM

SMILES: C1C[OH+]CC[OH+]CCNCC[OH+]CC[OH+]CCN1.N.[Cl-].[Pt+4]
- GI50 (UACC-257 melanoma): 3.19 µM
- TGI (UACC-257 melanoma): 10.9 µM
- GI50 (786-0 renal): 3.98 µM
- TGI (786-0 renal): 39.2 µM
- GI50 (SK-MEL-5 melanoma): 10.3 µM
- TGI (SK-MEL-5 melanoma): 25.3 µM
- GI50 (HCT-116 colon): 10.1 µM
- TGI (HCT-116 colon): 65.8 µM
- GI50 (KM12 colon): 19 µM
- TGI (KM12 colon): 48.7 µM
- GI50 (SF-539 CNS): 3.95 µM
- TGI (SF-539 CNS): 19.6 µM
- GI50 (SK-OV-3 ovarian): 15.1 µM
- TGI (SK-OV-3 ovarian): 60.9 µM
- GI50 (OVCAR-4 ovarian): 2.84 µM
- TGI (OVCAR-4 ovarian): 11.6 µM
- GI50 (HOP-62 NSCLC): 6.11 µM
- TGI (HOP-62 NSCLC): 66.3 µM
- GI50 (RPMI-8226 leukemia): 10.2 µM
- TGI (RPMI-8226 leukemia): 92.7 µM
